Results on 23 compounds are retold here after article PMC7746742, “The novel rexinoid MSU-42011 is effective for the treatment of preclinical Kras-driven lung cancer” (Scientific Reports, 2020).

The test system of series [1] is SREBP. Kind of series: SREBP mRNA expression assay in HepG2 cells (RT-PCR). The class given is cell-based, human. The conditions noted are these: for Effect on the induction of SREBP mRNA by LG100268: combined with LG100268 300 nM, GSK 2033 500 nM; for Effect on the induction of SREBP mRNA by LG100268 / SREBP mRNA expression compared to the vehicle control: HX 531 100 nM; for SREBP mRNA expression compared to the vehicle control: LG100268 300 nM, T0901317 500 nM, alone or combined; for SREBP activation Fold induction vs. Control / fold induction at 0.3 µM: HepG2 cells, 300 nM rexinoids, 8 h, SREBP mRNA by RT-PCR, mean ± SD of 3 experiments; for fold induction at 0.3 µM: Homo sapiens, read-out: SREBP activation Fold induction vs. Control. As for the experimental part: The goals of our structure–activity relationship (SAR) studies were to explore and discover new scaffolds that not only bind to RXR but also are able to independently modulate both iNOS and SREBP activity in accordance with a previously described screening paradigm. To characterize the effect of the novel rexinoids on SREBP elevation in vitro, HepG2 cells were treated with 300 nM rexinoids for 8 h and SREBP mRNA levels were measured by RT-PCR. SREBP expression ranged from no change to a 4.6-fold induction compared to the vehicle control when treated with the novel compounds. […] Analogs MSU- 41402, 41582, 41407, 41566, 41844, 41845, 42011, and 42166 induced an SREPB mRNA fold expression change of 1–1.5 normalized to a vehicle control, while bexarotene induced an mRNA fold expression change of > 2 (Table 1).
(§1) HepG2 were plated in 6-well plates (1 × 10^6 cells/well) and, after allowing the cells to attach overnight, were treated with 300 nM rexinoids and/or varying concentrations of T0901317 (TOCRIS # 2373), GSK 2033 (TOCRIS # 5694), HX 531 (TOCRIS # 3912) for 8 h. Total RNA was isolated with TRIzol (Invitrogen, Carlsbad, CA) and 2 µg RNA was used to synthesize cDNA using the SuperScript III reverse transcriptase kit (Invitrogen, Carlsbad, CA). Primers (IDT) for SREBP (F: 5′-GCCGGTTGATAGGCAGCTT-3′; R: 5′-GGTGAGTGGCGGAACCATT-3′) and GAPDH (F: 5′-[…]-3′; R: 5′-[…]-3′), the SYBR Green Supermix (Bio-rad Laboratories, Hercules, CA) and the QuantStudio 7 Flex Real-Time PCR system (95 °C for 20 s followed by 40 cycles of 95 °C for 15 s and 60 °C for 1 min were used to detect mRNA expression. Relative SREBP/GAPDH gene expression was calculated by the delta-delta Ct method. To evaluate protein expression by western blotting, HepG2 cells were plated as above and treated with 300 nM of rexinoids for 24 h. Cells were harvested and lysed in RIPA buffer (1 M Tris–Cl, 5 M NaCl, pH 7.4, 0.5 M EDTA, 25 mM sodium deoxycholate, 1% triton-X, 0.1% SDS, 0.0125% aprotinin) with protease inhibitors (1% PMSF/0.5% apoprotein/0.1%leupeptin). Protein concentration was measured using a BCA assay (Sigma-Aldrich). Proteins (10 µg/well) were separated in 10% SDS-PAGE gels and transferred to nitrocellulose membranes. Membranes were incubated with SREBP (Active Motif; 1:1000) and GAPDH (Santa Cruz Biotechnology; 1:8000) primary antibodies followed by anti-rabbit secondary antibodies conjugated to horseradish peroxidase (Cell Signaling). Signal was detected using the ECL Western Blotting Substrate (GE Healthcare), and protein levels quantified using ImageJ.

In series [2] the test system is SREBP. Kind of series: SREBP protein expression in HepG2 cells (western blot). The class given is cell-based, human. The following applies: 300 nM rexinoids, 24 h. How it is done: Although we have confirmed that the iNOS assay correlates with in vivo efficacy, few investigators have used the induction of SREBP in vitro as a biomarker to predict the ability of novel rexinoids to increase triglycerides in vivo. Elevated triglycerides are a side-effect found with many RXR agonists in preclinical models and by bexarotene in humans[13],[14]. […] HepG2 human liver cells were used, as the liver is the major organ that regulates lipid homeostasis.
as §1

A short description of series [3]: Plasma triglycerides in MMTV-neu mice fed rexinoids. The class given is in vivo. The following applies: MMTV-neu mice fed rexinoids for 10 days, n=5-6 mice/group. As for the experimental part: fold expression triglyceride
Supplemental Fig 1. Correlation of SREPB mRNA expression and triglyceride levels. HepG2 human liver cells were treated with 300 nM of rexinoids for 8 hr,and lysates analyzed by RT-PCR. Triglycerides in plasma from MMTV-neu mice fed rexinoids for10 days were measured using a commercial kit(Abcam). *, p <0.01 vs control; **, p<0.05 vs bex and LG268; n=5-6 mice/group.

The subject of the next series is A549 lung cancer cells. The series is described as follows: MTT proliferation assay. The following applies: 0–1 μM rexinoids, 72 hr. The class given is cell-based, human. How it is done:
were treated with 0-1 μM rexinoids for 72 hr. Proliferation was measured using the MTT assay.
MTT Assay. A549 cells were plated in 96-well plates (2,000 cells/well). After overnight attachment, cells were treated with 2 fold dilutions (0-1000 nM rexinoids) for 72 hr. 50 μL 3-(4,5-dimethylthiazol-2-yl)-2,5-diphenyltetrazolium bromide (MTT; Sigma M2128) was added to each well, and cells were incubated at 37 °C for 4 hr. Media was removed and cells were lysed with developing solution (0.04 M HCl in isopropanol). Plates were read at 550 nm.
(also on this page, place not known: 110A549 Cell Proliferation (% DMSO Control) 37°C)
A general note: Formazan colour is commonly taken as a measure of viable cells.

A further series has as its system iNOS. The series is described as follows: iNOS inhibition assay (LPS-induced NO production, Griess reaction). The class given is cell-based, murine. The following applies: RAW264.7 cells, 0–1000 nM rexinoids, LPS 1 ng/ml 24 h, NO by Griess assay, mean ± SE of 3 experiments, read-out: iNOS suppression IC50. How it is done: To evaluate the anti-inflammatory effects of the novel rexinoids, we utilized the iNOS suppression assay. Inhibition of iNOS in vitro directly correlates with efficacy in our preclinical model of Kras-driven lung cancer. RAW264.7 macrophage-like cells were treated with 0–1 μM rexinoids and stimulated with 1 ng/mL lipopolysaccharide for 24 h, and then NO was measured in the media.
RAW264.7 cells were plated in 96-well plates (20,000 cells/well). After overnight attachment, cells were treated with twofold serial dilutions (0–1000 nM) of rexinoids. After a 20 min incubation at 37 °C, cells were stimulated with 1 ng/mL LPS for 24 h. NO production was measured in culture medium using the Griess reaction. IC50 values were calculated using GraphPad Prism 8.1.2 software for Windows using a log([nM drug concentration]) vs. response curve fit.

Like-named read-outs stand apart in the source and are kept apart here.

The IC50 is the concentration needed to halve the response being measured.

Take `Cc1cc(C)c(S(=O)(=O)N(Cc2ccc(-c3cccc(S(C)(=O)=O)c3)cc2)Cc2ccc(C(F)(F)F)o2)c(C)c1` [GSK 2033]: the “SREBP mRNA expression lowered by” value with SREBP [1] (HepG2, 8 h, GSK 2033 500 nM alone) is on record as ~ 50%. For the same compound, the “Effect on the induction of SREBP mRNA by LG100268” value in the series on SREBP [1] (HepG2, 8 h) was “partially reversed the induction of SREBP by LG100268”.
On to `CN1c2ccc([N+](=O)[O-])cc2N=C(c2ccc(C(=O)O)cc2)c2cc3c(cc21)C(C)(C)CCC3(C)C` [HX 531], for which, in the series with SREBP [1] (HepG2, 8 h), the “SREBP mRNA expression compared to the vehicle control” value is “did not alter SREBP mRNA expression” and the “Effect on the induction of SREBP mRNA by LG100268” value is “reversed the induction of SREBP by LG100268”.
`CC(/C=C/[C@@H]1C[C@]1(C)c1ccc2c(c1)C(C)(C)CCC2(C)C)=C\C(=O)O` [IRX194204]: the “SREBP protein levels compared to DMSO control” value in the series with SREBP [2] was “increased SREBP protein levels”.
On to `Cc1cc2c(cc1C1(c3ccc(C(=O)O)cn3)CC1)C(C)(C)CCC2(C)C` [LG100268], for which the “SREBP mRNA expression compared to the vehicle control” value with SREBP [1] (HepG2, 8 h) turned out to be 2.5 fold. For the same compound, in the series on SREBP [1], the “SREBP activation Fold induction vs. Control” value was found to be 3.06 ± 0.7 fold. Also, in the series on SREBP [2], the “SREBP protein levels compared to DMSO control” value was “increased SREBP protein levels”. Besides, in series [3], the “Plasma triglyceride levels in mice” value turned out to be 3.42 ± 0.4 nmol/µL. For the same compound, the “Growth / proliferation of A549 lung cancer cells” value with A549 lung cancer cells is reported as “do not inhibit proliferation”. Besides, the IC50 in the series with iNOS stood at 83 ± 14 nM.
On to `C/C(=C/C=C/C(C)=C/C(=O)O)c1cc(C(C)(C)C)cc(C(C)(C)C)c1OCC(F)F` [LG101506], for which the “SREBP activation Fold induction vs. Control” value with SREBP [1] is listed as 1.06 ± 0.3 fold. For the same compound, in the series with SREBP [2], the “SREBP protein levels compared to DMSO control” value was “did not”. For the same compound, in series [3], the “Plasma triglyceride levels in mice” value was 1.21 ± 0.1 nmol/µL.
Take `CCN(c1ccc(C(=O)O)cc1)c1cc(C(C)(C)C)cc(C(C)(C)C)c1` [MSU-41402]: in the series on SREBP [1] (HepG2, 8 h), the fold induction at 0.3 µM stood at 1.37 ± 0.3. Moreover, the IC50 in the series on iNOS (Mus musculus) was 343 ± 62 nM.
In the same order, the values of `C=C(c1ccc(C(=O)O)cc1)c1cc(C(C)(C)C)ccc1OCC` [MSU-41403] are 2.68 ± 0.2 and 331 ± 45 nM.
Taken in the same sequence, the figures for `C=C(c1ccc(C(=O)O)cc1)c1cc2c(cc1C)CCCC2(C)C` [MSU-41404] were 3.07 ± 0.5 and 340 ± 25 nM.
Taken in the same sequence, the figures for `C=C(c1ccc(C(=O)O)cc1)c1ccc(OCC(C)C)c(C(C)C)c1` [MSU-41405] were 1.87 ± 0.3 and 267 ± 32 nM.
Consider `C=C(c1ccc(C(=O)O)cc1)c1cc(C(C)C)c(OCC(C)C)cc1C` [MSU-41406], for which, in the series with SREBP [1] (HepG2, 8 h), the fold induction at 0.3 µM amounted to 1.67 ± 0.2. For the same compound, in the series on iNOS (Mus musculus), the half-inhibitory concentration (IC50) is 252 ± 55 nM.
Turning to `C=C(c1ccc(C(=O)O)cc1)c1cc(C(C)C)c(OC(C)C)cc1C` [MSU-41407], the fold induction at 0.3 µM in the series with SREBP [1] (HepG2, 8 h) came out at 1.08 ± 0.1. In the series with iNOS (Mus musculus), the IC50 is 334 ± 17 nM.
In the same order, the values of `C=C(c1ccc(C(=O)O)cc1)c1cc(C(C)C)c(OCC)cc1C` [MSU-41408] are 2.55 ± 0.7 and 300 ± 79 nM.
Taken in the same sequence, the figures for `CCN(c1cc(C(C)(C)C)cc(C(C)(C)C)c1)c1ccc(C(=O)O)cn1` [MSU-41564] were 2.62 ± 0.7 and 248 ± 60 nM.
For `CCOc1c(N(CC)c2ccc(C(=O)O)cc2)cc(C(C)(C)C)cc1C(C)(C)C` [MSU-41565], the fold induction at 0.3 µM in the series on SREBP [1] (HepG2, 8 h) stood at 1.59 ± 0.2. Also, the IC50 with iNOS (Mus musculus) is 366 ± 49 nM.
Taken in the same sequence, the figures for `C=C(c1ccc(C(=O)O)cc1)c1cc(C(C)(C)C)cc(C(C)(C)C)c1` [MSU-41566] were 1.12 ± 0.5 and 239 ± 53 nM.
Turning to `CC(C)(C)c1cc(-n2c(C(F)(F)F)nc3cc(C(=O)O)ccc32)cc(C(C)(C)C)c1` [MSU-41567], in the series on SREBP [1] (HepG2, 8 h), the fold induction at 0.3 µM is 1.58 ± 0.2. Also, the IC50 in the series with iNOS (Mus musculus) came out at 271 ± 92 nM.
In the same order, the values of `CCN(c1cc(C(C)(C)C)cc(C(C)(C)C)c1)c1ncc(C(=O)O)cn1` [MSU-41582] are 1.38 ± 0.4 and 295 ± 54 nM.
In the same order, the values of `CCN(c1ccc(C(=O)O)cn1)c1cc(C(C)(C)C)ccc1C` [MSU-41583] are 1.59 ± 0.5 and 290 ± 61 nM.
In the case of `CC(C)(C)c1cc(N(CC2CC2)c2ccc(C(=O)O)cn2)cc(C(C)(C)C)c1` [MSU-41843], the fold induction at 0.3 µM in the series on SREBP [1] (HepG2, 8 h) amounted to 2.48 ± 1.8. For the same compound, the concentration for half-maximal inhibition (IC50) with iNOS (Mus musculus) was determined as 274 ± 33 nM.
Taken in the same sequence, the figures for `CCN(c1cc(C(F)(F)F)cc(C(F)(F)F)c1)c1ccc(C(=O)O)cn1` [MSU-41844] were 0.96 ± 0.5 and 389 ± 53 nM.
In the same order, the values of `CCN(c1ccc(C(=O)O)cc1)c1cc(C(C)C)c(OCC(C)C)cc1C` [MSU-41845] are 1.45 ± 0.2 and 338 ± 31 nM.
With `CCN(c1ccc(C(=O)O)cc1)c1cc(C(C)(C)C)c(OC)c(C(C)(C)C)c1` [MSU-41846], the fold induction at 0.3 µM in the series on SREBP [1] (HepG2, 8 h) is 1.63 ± 0.3. Also, the IC50 in the series on iNOS (Mus musculus) is 347 ± 31 nM.
For `O=S(=O)(c1ccccc1)N(CC(F)(F)F)c1ccc(C(O)(C(F)(F)F)C(F)(F)F)cc1` [T0901317], in the series with SREBP [1] (HepG2, 8 h), the “SREBP mRNA expression compared to the vehicle control” value was 2.5 fold.
